Laboratory results as given in US12459951B2, “Compounds that interact with RAS superfamily proteins for treatment of cancers, inflammatory diseases, rasopathies, and fibrotic disease” (SHY Therapeutics, LLC, priority 2022, dated 2025).

Experiments:
TNF-alpha = TNF-alpha Quantification Assay (ELISA), LPS-stimulated RAW 264.7; assay type: cell-based; settings: Mus musculus, RAW264.7; at 10 μM; read-out: TNFα: % inh.
KRas G12D mutant = experiment: Ras GTP Binding Domain Inhibition Assay (Ras Superfamily Assay); settings: for KRas G12D mutant + SOS: % inh.: with SOS; for KRas G12D mutant: % inh.: without SOS
How it was run: (§1)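 Binding of 100 nM fluorescent GTP (Cy3 or Cy5, 45 min, room temperature) was read after washes from plate-captured His-tagged protein. Beforehand, compounds at 20 μM or in dilution series for IC50 sat 3 h on the protein in Tris buffer pH 7.4 or 7.0 with 1% DMSO, Sos GEF optionally added for the last hour.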

Rac-1 = molecular target: T1, Rac-1 (Homo sapiens, UniProt P63000); experiment: as above; settings: read-out: Rac-1: % inh.
T1 construct: made in house
How it was run: as §1

KRas wild type = experiment: as above; settings: for KRas wild type + SOS: % inh.: with SOS; for KRas wild type: % inh.: without SOS
How it was run: as §1

Structure (SMILES)	inhibition at 10 µM (TNF-alpha) [%]	KRas G12D mutant + SOS: % inh. (KRas G12D mutant; at 20 μM)	KRas G12D mutant: % inh. (KRas G12D mutant; at 20 μM)	inhibition at 20 µM (Rac-1) [%]	KRas wild type + SOS: % inh. (KRas wild type; at 20 μM)	KRas wild type: % inh. (KRas wild type; at 20 μM)	KRas G12D mutant + SOS: % inh. (KRas G12D mutant; 20 μM compound)	KRas G12D mutant: % inh. (KRas G12D mutant; 20 μM compound)	KRas wild type + SOS: % inh. (KRas wild type; 20 μM compound)	KRas wild type: % inh. (KRas wild type; 20 μM compound)
COc1ccnc(N(C)c2nc(-c3nccn3C)nn3cc(-c4ccn(C)n4)c(C)c23)c1 [Compound 223, N-(4-Methoxypyridin-2-yl)-N,5-dimethyl-2-(1-methyl-1H-imidazol-2-yl)-6-(1-methyl-1H-pyrazol-3-yl)pyrrolo[2,1-f][1,2,4]triazin-4-amine]	1 to 24	A (A = 1-25% inhibition)	B (B = 26-49% inhibition)	26 to 49	0 (0 = 0% inhibition)	B (B = 26-49% inhibition)				
Cc1c(-c2ccn(C)n2)cn2nc(-c3nccn3C)nc(Nc3ccc(C(F)F)cn3)c12 [Compound 234, N-(5-(Difluoromethyl)pyridin-2-yl)-5-methyl-2-(1-methyl-1H-imidazol-2-yl)-6-(1-methyl-1H-pyrazol-3-yl)pyrrolo[2,1-f][1,2,4]triazin-4-amine]	1 to 24	D (D = 76-100% inhibition)	D (D = 76-100% inhibition)	76 to 100	D (D = 76-100% inhibition)	C (C = 50-75% inhibition)				
Cc1c(-c2ccn(C)n2)cn2nc(-c3nccn3C)nc(Nc3ccc(-n4ccnc4C)cn3)c12 [Compound 243, 5-Methyl-N-(5-(2-methyl-1H-imidazol-1-yl)pyridin-2-yl)-2-(1-methyl-1H-imidazol-2-yl)-6-(1-methyl-1H-pyrazol-3-yl)pyrrolo[2,1-f][1,2,4]triazin-4-amine]	0	D (D = 76-100% inhibition)	D (D = 76-100% inhibition)	76 to 100	D (D = 76-100% inhibition)	D (D = 76-100% inhibition)				
CO[C@H]1C[C@H](Nc2nc(-c3nccn3C)nn3cc(-c4cccnc4)c(-c4cccnc4)c23)C1 [Compound 171, N-((1r,3r)-3-Methoxycyclobutyl)-2-(1-methyl-1H-imidazol-2-yl)-5,6-di(pyridin-3-yl)pyrrolo[2,1-f][1,2,4]triazin-4-amine]	0			1 to 25			A (A = 1-25% inhibition)	A (A = 1-25% inhibition)	B (B = 26-49% inhibition)	A (A = 1-25% inhibition)
Cc1c(-c2ccn(C)n2)cn2nc(-c3nccn3C)nc(Nc3ccc(-n4ccnc4)cn3)c12 [Compound 242, N-(5-(1H-Imidazol-1-yl)pyridin-2-yl)-5-methyl-2-(1-methyl-1H-imidazol-2-yl)-6-(1-methyl-1H-pyrazol-3-yl)pyrrolo[2,1-f][1,2,4]triazin-4-amine]	0	A (A = 1-25% inhibition)	B (B = 26-49% inhibition)	1 to 25	0 (0 = 0% inhibition)	A (A = 1-25% inhibition)				
COc1cc(Nc2nc(-c3nccn3C)nn3cc(-c4cccnc4)c(-c4cccnc4)c23)ncn1 [Compound 170, N-(6-Methoxypyrimidin-4-yl)-2-(1-methyl-1H-imidazol-2-yl)-5,6-di(pyridin-3-yl)pyrrolo[2,1-f][1,2,4]triazin-4-amine]	0			76 to 100			D (D = 76-100% inhibition)	D (D = 76-100% inhibition)	D (D = 76-100% inhibition)	D (D = 76-100% inhibition)
COCCCNC(=O)c1c(-c2ccn(C)n2)cn2nc(-c3nccn3C)nc(N[C@H]3CC[C@H](OC)C3)c12 (racemic) [Compound 184, rac 4-(((1S,3S)-3-methoxycyclo-pentyl)amino)-N-(3-methoxypropyl)-2-(1-methyl-1H-imidazol-2-yl)-6-(1-methyl-1H-pyrazol-3-yl)pyrrolo[2,1-f][1,2,4]triazine-5-carboxamide]	25 to 49			1 to 25			0 (0 = 0% inhibition)	B (B = 26-49% inhibition)	A (A = 1-25% inhibition)	A (A = 1-25% inhibition)
COCCNC(=O)c1c(-c2ccn(C)n2)cn2nc(-c3nccn3C)nc(N[C@H]3CC[C@H](OC)C3)c12 (racemic) [Compound 183, rac 4-(((1S,3S)-3-Methoxycyclo-pentyl)amino)-N-(2-methoxyethyl)-2-(1-methyl-1H-imidazol-2-yl)-6-(1-methyl-1H-pyrazol-3-yl)pyrrolo[2,1-f][1,2,4]triazine-5-carboxamide]	25 to 49			1 to 25			A (A = 1-25% inhibition)	A (A = 1-25% inhibition)	A (A = 1-25% inhibition)	0 (0 = 0% inhibition)
COc1ccc(Nc2nc(-c3nccn3C)nn3cc(-c4ccn(C)n4)c(C)c23)nc1 [Compound 224, N-(5-Methoxypyridin-2-yl)-5-methyl-2-(1-methyl-1H-imidazol-2-yl)-6-(1-methyl-1H-pyrazol-3-yl)pyrrolo[2,1-f][1,2,4]triazin-4-amine]	1 to 24	D (D = 76-100% inhibition)	D (D = 76-100% inhibition)	76 to 100	D (D = 76-100% inhibition)	D (D = 76-100% inhibition)				
COc1ccnc(Nc2nc(-c3nccn3C)nn3cc(-c4ccn(C)n4)c(C(=O)N4CCCC4)c23)c1 [Compound 178, (4-((4-Methoxypyridin-2-yl)amino)-2-(1-methyl-1H-imidazol-2-yl)-6-(1-methyl-1H-pyrazol-3-yl)pyrrolo[2,1-f][1,2,4]triazin-5-yl)(pyrrolidin-1-yl)methanone]	0			76 to 100			D (D = 76-100% inhibition)	D (D = 76-100% inhibition)	D (D = 76-100% inhibition)	D (D = 76-100% inhibition)
CCNC(=O)c1c(-c2ccn(C)n2)cn2nc(-c3nccn3C)nc(Nc3cc(OC)ccn3)c12 [Compound 173, N-Ethyl-4-((4-methoxypyridin-2-yl)amino)-2-(1-methyl-1H-imidazol-2-yl)-6-(1-methyl-1H-pyrazol-3-yl)pyrrolo[2,1-f][1,2,4]triazine-5-carboxamide]	0			50 to 75			C (C = 50-75% inhibition)	B (B = 26-49% inhibition)	D (D = 76-100% inhibition)	C (C = 50-75% inhibition)
Cc1c(-c2ccn(C)n2)cn2nc(-c3nccn3C)nc(Nc3ccc(OCC(F)(F)F)cn3)c12 [Compound 230, 5-Methyl-2-(1-methyl-1H-imidazol-2-yl)-6-(1-methyl-1H-pyrazol-3-yl)-N-(5-(2,2,2-trifluoroethoxy)pyridin-2-yl)pyrrolo[2,1-f][1,2,4]triazin-4-amine]	1 to 24	D (D = 76-100% inhibition)	D (D = 76-100% inhibition)	76 to 100	D (D = 76-100% inhibition)	D (D = 76-100% inhibition)				
COc1ccnc(Nc2nc(-c3nccn3C)nn3cc(-c4ccn(C)n4)c(C(=O)N4CCOCC4)c23)c1 [Compound 179, (4-((4-Methoxypyridin-2-yl)amino)-2-(1-methyl-1H-imidazol-2-yl)-6-(1-methyl-1H-pyrazol-3-yl)pyrrolo[2,1-f][1,2,4]triazin-5-yl)(morpho-lino)methanone]	0			76 to 100			D (D = 76-100% inhibition)	D (D = 76-100% inhibition)	D (D = 76-100% inhibition)	D (D = 76-100% inhibition)
COc1ccnc(Nc2nc(-c3nccn3C)nn3cc(-c4ccn(C)n4)c(C(=O)NC4CC4)c23)c1 [Compound 175, N-Cyclopropyl-4-((4-methoxypyridin-2-yl)amino)-2-(1-methyl-1H-imidazol-2-yl)-6-(1-methyl-1H-pyrazol-3-yl)pyrrolo[2,1-f][1,2,4]triazine-5-carboxamide]	0			26 to 49			D (D = 76-100% inhibition)	C (C = 50-75% inhibition)	D (D = 76-100% inhibition)	D (D = 76-100% inhibition)
COc1ccc(N(C)c2nc(-c3nccn3C)nn3cc(-c4ccn(C)n4)c(C)c23)nc1 [Compound 225, N-(5-Methoxypyridin-2-yl)-N,5-dimethyl-2-(1-methyl-1H-imidazol-2-yl)-6-(1-methyl-1H-pyrazol-3-yl)pyrrolo[2,1-f][1,2,4]triazin-4-amine]	0	A (A = 1-25% inhibition)	B (B = 26-49% inhibition)	1 to 25	A (A = 1-25% inhibition)	A (A = 1-25% inhibition)				
